Measurements reported in US9062026B2, “Fused pyrimidines and substituted quinazolines as inhibitors of p97” (Cleave Biosciences, Inc., priority 2012, dated 2015).
Like-named read-outs stand apart in the source and are kept apart here.

Tests used:
A549 K48 = A549 K48 cell intensity (lysine-48 poly-ubiquitin accumulation, immunofluorescence); format: cell-based; conditions: Homo sapiens
Description: Image-analysis is used to generate quantitative data from these assays that can be fit to a four-parameter sigmoid curve to derive IC50 values. Substrates of the ubiquitin-proteasome system, such as p53, are monitored after tumor cell lines are incubated with compounds for several hours. Accumulation of these proteins indicates an inhibition of proteasome-mediated degradation. Accumulation of lysine-48 chain linkage of poly-ubiquitin is also monitored by immunofluorescence as an indicator of ubiquitin-proteasome system inhibition. Both LC3 and SQSTM1 are mediators of autophagy. The localization and amounts of these proteins are monitored by immunofluorescence and report on the activity and inhibition of autophagy in response to p97 inhibition.

p97 = p97 (Homo sapiens (Human), UniProt P55072); assay: P97 ATPase biochem assay (ADP Glo); format: biochemical
Description: The ATPase assay is performed according the following protocol: Purified enzyme (20 nM p97), substrate (20 μM ATP) and a dose titration of compounds are mixed in buffer (50 mM TRIS pH 7.5, 20 mM MgCl2, 0.02% TX-100, 1 mM DTT, 0.2% (v/v) glycerol) and incubated at 37° C. for 15 minutes. The reaction is terminated and the level of product generated is measured using the ADP Glo Assay Kit (Promega, Madison Wis.). Plotting product generated versus compound concentration and using a four-parameter fit model generates an IC50 value for each compounds.

[1] = 20 nM p97, 20 μM ATP, 37° C., 15 minutes, read-out: p97 biochem IC50

Sequence of p97 (P55072 whole entry): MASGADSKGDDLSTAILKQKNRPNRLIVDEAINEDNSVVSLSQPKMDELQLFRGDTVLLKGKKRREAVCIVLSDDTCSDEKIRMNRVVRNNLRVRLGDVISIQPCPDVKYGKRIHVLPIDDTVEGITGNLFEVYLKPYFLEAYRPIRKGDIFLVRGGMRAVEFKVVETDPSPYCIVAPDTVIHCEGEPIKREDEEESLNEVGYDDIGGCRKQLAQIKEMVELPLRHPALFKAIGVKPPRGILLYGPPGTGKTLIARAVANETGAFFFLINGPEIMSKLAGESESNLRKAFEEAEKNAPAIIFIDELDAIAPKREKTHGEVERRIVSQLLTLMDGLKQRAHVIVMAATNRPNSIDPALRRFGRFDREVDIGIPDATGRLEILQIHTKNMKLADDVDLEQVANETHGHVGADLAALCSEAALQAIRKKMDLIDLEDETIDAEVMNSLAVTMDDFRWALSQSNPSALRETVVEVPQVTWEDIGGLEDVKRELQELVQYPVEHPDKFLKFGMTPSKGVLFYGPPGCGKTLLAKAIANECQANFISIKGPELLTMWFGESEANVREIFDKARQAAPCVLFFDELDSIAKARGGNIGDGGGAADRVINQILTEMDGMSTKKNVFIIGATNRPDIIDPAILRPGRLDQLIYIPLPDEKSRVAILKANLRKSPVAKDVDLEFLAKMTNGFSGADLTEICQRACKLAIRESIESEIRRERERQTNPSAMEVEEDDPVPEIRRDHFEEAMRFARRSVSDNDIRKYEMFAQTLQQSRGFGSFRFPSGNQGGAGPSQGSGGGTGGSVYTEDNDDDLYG

Row | Structure (SMILES) | IC50 (A549 K48) | IC50 (p97; read-out: p97 IC50) | IC50 (p97; [1])
1 | Cc1nc2c(C#N)cccc2n1-c1nc2c(c(NCc3ccccc3)n1)CCCC2 [1-[4-(benzylamino)-5,6,7,8-tetrahydroquinazolin-2-yl]-2-methyl-1H-1,3-benzodiazole-4-carbonitrile] | < 10 µM | < 0.1 µM | –
2 | CC(=O)NCc1cc2ccccc2n1-c1nc2c(c(NCc3ccccc3)n1)CCCC2 [N-({1-[4-(benzylamino)-5,6,7,8-tetrahydroquinazolin-2-yl]-1H-indol-2-yl}methyl)acetamide] | < 10 µM | < 0.1 µM | –
3 | Cc1cc2c(C#N)cccc2n1-c1nc2c(c(NCc3ccccc3)n1)CN(C)CC2 [1-[4-(benzylamino)-6-methyl-5H,6H,7H,8H-pyrido[4,3-d]pyrimidin-2-yl]-2-methyl-1H-indole-4-carbonitrile] | < 10 µM | < 0.1 µM | –
4 | Clc1cc2ccccc2n1-c1nc2c(c(NCc3ccccc3)n1)CCCC2 [N-benzyl-2-(2-chloro-1H-indol-1-yl)-5,6,7,8-tetrahydroquinazolin-4-amine] | < 10 µM | < 0.1 µM | –
5 | OCc1cc2ccccc2n1-c1nc2c(c(NCc3ccccc3)n1)CCCC2 [{1-[4-(benzylamino)-5,6,7,8-tetrahydroquinazolin-2-yl]-1H-indol-2-yl}methanol] | < 10 µM | < 0.1 µM | –
6 | Cc1cc2c(C(N)=O)cccc2n1-c1nc2c(c(NCc3ccccc3)n1)CNCC2 [1-[4-(benzylamino)-5H,6H,7H,8H-pyrido[4,3-d]pyrimidin-2-yl]-2-methyl-1H-indole-4-carboxamide] | < 10 µM | < 0.1 µM | –
7 | COc1cc2ccccc2n1-c1nc2c(c(NCc3ccccc3)n1)CCCC2 [N-benzyl-2-(2-methoxy-1H-indol-1-yl)-5,6,7,8-tetrahydroquinazolin-4-amine] | < 10 µM | < 0.03 µM | –
8 | CN(C)Cc1cc2ccccc2n1-c1nc2c(c(NCc3ccccc3)n1)CCCC2 [N-benzyl-2-{2-[(dimethylamino)methyl]-1H-indol-1-yl}-5,6,7,8-tetrahydroquinazolin-4-amine] | < 10 µM | < 0.3 µM | –
9 | COc1cccc2c(NCc3ccccc3)nc(-n3c(C(C)N)cc4ccccc43)nc12 (stereo not shown) [2-[2-(1-aminoethyl)-1H-indol-1-yl]-N-benzyl-8-methoxyquinazolin-4-amine] | < 10 µM | < 0.3 µM | –
10 | COCCOc1cccc2c(NCc3ccccc3)nc(-n3c(OC)nc4ccccc43)nc12 [N-benzyl-2-(2-methoxy-1H-1,3-benzodiazol-1-yl)-8-(2-methoxyethoxy)quinazolin-4-amine] | < 10 µM | < 0.3 µM | –
11 | COCCOc1cccc2c(NCc3ccccc3)nc(-n3c(CO)cc4ccccc43)nc12 [{1-[4-(benzylamino)-8-(2-methoxyethoxy)quinazolin-2-yl]-1H-indol-2-yl}methanol] | < 10 µM | < 0.1 µM | –
12 | COc1cc2c(C#N)cccc2n1-c1nc2c(c(NCc3ccccc3)n1)CCCC2 [1-[4-(benzylamino)-5,6,7,8-tetrahydroquinazolin-2-yl]-2-methoxy-1H-indole-4-carbonitrile] | < 10 µM | < 0.1 µM | –
13 | COc1cccc2c(NCc3ccccc3)nc(-n3c(OC)cc4ccccc43)nc12 [N-benzyl-8-methoxy-2-(2-methoxy-1H-indol-1-yl)quinazolin-4-amine] | < 10 µM | < 0.1 µM | –
14 | COc1cccc2c(NCc3ccccc3)nc(-n3c(/C=C/S(C)(=O)=O)cc4ccccc43)nc12 [N-benzyl-2-{2-[(E)-2-methanesulfonylethenyl]-1H-indol-1-yl}-8-methoxyquinazolin-4-amine] | < 10 µM | < 0.3 µM | –
15 | CS(=O)(=O)NCc1cc2ccccc2n1-c1nc2c(c(NCc3ccccc3)n1)CCCC2 [N-({1-[4-(benzylamino)-5,6,7,8-tetrahydroquinazolin-2-yl]-1H-indol-2-yl}methyl)methanesulfonamide] | < 10 µM | < 0.3 µM | –
16 | COCCOc1cccc2c(NCc3ccccc3)nc(-n3c(C)cc4ccccc43)nc12 [N-benzyl-8-(2-methoxyethoxy)-2-(2-methyl-1H-indol-1-yl)quinazolin-4-amine] | < 10 µM | < 0.1 µM | –
17 | CCOc1cc2ccccc2n1-c1nc2c(c(NCc3ccccc3)n1)CCCC2 [N-benzyl-2-(2-ethoxy-1H-indol-1-yl)-5,6,7,8-tetrahydroquinazolin-4-amine] | < 10 µM | < 0.1 µM | –
18 | COc1cc2c(C(N)=O)cccc2n1-c1nc2c(c(NCc3ccccc3)n1)COCC2 [1-[4-(benzylamino)-5H,7H,8H-pyrano[4,3-d]pyrimidin-2-yl]-2-methoxy-1H-indole-4-carboxamide] | < 10 µM | < 0.03 µM | –
19 | COc1nc2ccccc2n1-c1nc2c(c(NCc3ccccc3)n1)CNCC2 | – | – | < 2 µM

Row | Structure (SMILES) | IC50 (A549 K48) | IC50 (p97; read-out: p97 IC50) | IC50 (p97; [1])
20 | COCCOc1cccc2c(NCc3ccccc3)nc(-n3c(C(C)N)cc4ccccc43)nc12 (stereo not shown) [2-[2-(1-aminoethyl)-1H-indol-1-yl]-N-benzyl-8-(2-methoxyethoxy)quinazolin-4-amine] | – | < 0.3 µM | –
21 | COc1cccc2c(NCc3ccccc3)nc(-n3c(CN)cc4ccccc43)nc12 | – | – | < 2 µM
22 | NC(=O)NCc1cc2ccccc2n1-c1nc2c(c(NCc3ccccc3)n1)CCCC2 [({1-[4-(benzylamino)-5,6,7,8-tetrahydroquinazolin-2-yl]-1H-indol-2-yl}methyl)urea] | < 10 µM | < 0.1 µM | –
23 | COc1cc2ccccc2n1-c1nc2c(c(NCc3ccccc3)n1)COCC2 [N-benzyl-2-(2-methoxy-1H-indol-1-yl)-5H,7H,8H-pyrano[4,3-d]pyrimidin-4-amine] | < 10 µM | < 0.3 µM | –
24 | COCc1cc2ccccc2n1-c1nc2c(c(NCc3ccccc3)n1)CCCC2 | – | – | < 2 µM
25 | COc1cc2c(C#N)cccc2n1-c1nc2c(c(NCc3ccccc3)n1)CNCC2 [1-[4-(benzylamino)-5H,6H,7H,8H-pyrido[4,3-d]pyrimidin-2-yl]-2-methoxy-1H-indole-4-carbonitrile] | – | < 0.3 µM | –
26 | NC(=O)NCc1cc2ccccc2n1-c1nc2c(c(NCc3ccccc3)n1)CCCC2 [drawing 231] | – | – | < 2 µM
27 | COCCOc1cccc2c(NCc3ccccc3)nc(C3C(ON)=Nc4ccccc43)nc12 (stereo not shown) | – | – | < 2 µM
28 | COc1cc2ccccc2n1-c1nc2c(c(NCc3ccccc3)n1)CCCC2 [drawing 226] | – | – | < 2 µM
29 | COc1cc2c(C#N)cccc2n1-c1nc2c(c(NCc3ccccc3)n1)COCC2 [1-[4-(benzylamino)-5H,7H,8H-pyrano[4,3-d]pyrimidin-2-yl]-2-methoxy-1H-indole-4-carbonitrile] | < 10 µM | < 0.1 µM | –
30 | COCCOc1cccc2c(NCc3ccccc3)nc(-n3c(OC)nc4ccccc43)nc12 [drawing 222] | – | – | < 2 µM
31 | Cc1cc2c(C(N)=O)cccc2n1-c1nc2c(c(NCc3ccccc3)n1)COCC2 [1-[4-(benzylamino)-5H,7H,8H-pyrano[4,3-d]pyrimidin-2-yl]-2-methyl-1H-indole-4-carboxamide] | < 10 µM | – | –
32 | COc1cc2ccccc2n1-c1nc(NCc2ccccc2)c2c(n1)C(=O)N(C(=O)OC(C)(C)C)CC2 | – | – | < 2 µM
33 | NCc1cc2ccccc2n1-c1nc2c(c(NCc3ccccc3)n1)CCCC2 [2-[2-(aminomethyl)-1H-indol-1-yl]-N-benzyl-5,6,7,8-tetrahydroquinazolin-4-amine] | < 10 µM | < 0.3 µM | –
34 | COC(=O)NCc1cc2ccccc2n1-c1nc2c(c(NCc3ccccc3)n1)CCCC2 [methyl N-({1-[4-(benzylamino)-5,6,7,8-tetrahydroquinazolin-2-yl]-1H-indol-2-yl}methyl)carbamate] | < 10 µM | < 0.3 µM | –
35 | COc1cccc2c(NCc3ccccc3)nc(C3CNc4ccccc43)nc12 (stereo not shown) | – | – | < 2 µM
36 | CS(=O)(=O)NCc1cc2ccccc2n1-c1nc2c(c(NCc3ccccc3)n1)CCCC2 [drawing 233] | – | – | < 2 µM
37 | Cc1nc2ccccc2n1-c1nc2c(c(NCc3ccccc3)n1)CCCC2 [N-benzyl-2-(2-methyl-1H-1,3-benzodiazol-1-yl)-5,6,7,8-tetrahydroquinazolin-4-amine] | – | < 0.3 µM | –
38 | COCCOc1cccc2c(NCc3ccccc3)nc(-n3c(CNC(=O)OC)cc4ccccc43)nc12 [methyl N-({1-[4-(benzylamino)-8-(2-methoxyethoxy)quinazolin-2-yl]-1H-indol-2-yl}methyl)carbamate] | – | < 0.3 µM | –
